Columns and labels:
[1] = tested on: Molp8; experiment: Soluble BCMA (sBCMA) shedding after GSI (ELISA); assay type: cell-based, Human; parameters: unit not given here; conditions: Table 6 (sBCMA in supernatant, ELISA), 24 hours
[2] = tested on: MM.1S; experiment: Soluble BCMA (sBCMA) shedding after GSI (ELISA); assay type: cell-based, Human; parameters: unit not given here; conditions: Table 6 (sBCMA in supernatant, ELISA), 24 hours
[3] = tested on: Raji-luc; experiment: BCMAxCD3 bispecific mediated cell killing of lymphoma cells with human T cells, with or without GSI; assay type: cell-based; conditions: 60 hours, with or without 1 μM GSI, ± SD
Protocol: CD3^+ T cells from PBMCs (Stem Cell Technologies) were negatively selected using EasySep Human T cell enrichment kit (Stem Cell Technologies). 10,000 target lymphoma cells expressing luciferase (Raji-luc) were treated with 1 μM GSI. After 24 hours, cells were seeded with 50,000 CD3^+ pan T cells in a clear 96-well V-bottom plate. Cells were further treated with a range of BCMAxCD3 bispecific concentrations with or without 1 μM GSI. 60 hours after treatment, luciferase activity in treated cells was analyzed using NeoLite reagent kit (Perkin Elmer) and acquired on VictorX multimode plate reader (Perkin Elmer). Cell viability was calculated by dividing luciferase activity of treated cells over luciferase activity of untreated control (no BCMAxCD3 bispecific antibody added).

CCC[C@H](N[C@H]1CCc2cc(F)cc(F)c2C1)C(=O)Nc1cn(C(C)(C)CNCC(C)(C)C)cn1 [GSI, nirogacestat]
BCMA (-PE) MFI ([1]; Molp8, GSI 0.01 nM): 6887.3
BCMA (-PE) MFI ([1]; Molp8, GSI 0.1 nM): 6363.4
BCMA (-PE) MFI ([1]; Molp8, GSI 1 nM): 6072.9
BCMA (-PE) MFI ([1]; Molp8, GSI 2.5 nM): 6765.5
BCMA (-PE) MFI ([1]; Molp8, GSI 5 nM): 5989.3
BCMA (-PE) MFI ([1]; Molp8, GSI 10 nM): 5958.9
BCMA (-PE) MFI ([1]; Molp8, GSI 25 nM): 3021.7
BCMA (-PE) MFI ([1]; Molp8, GSI 50 nM): 1044.3
BCMA (-PE) MFI ([1]; Molp8, GSI 100 nM): 431.8
BCMA (-PE) MFI ([1]; Molp8, GSI 500 nM): 87.3
BCMA (-PE) MFI ([1]; Molp8, GSI 1000 nM): 51.6
BCMA (-PE) MFI ([2]; GSI 0.01 nM): 3794.2
BCMA (-PE) MFI ([2]; GSI 0.1 nM): 5797.5
BCMA (-PE) MFI ([2]; GSI 1 nM): 5143.1
BCMA (-PE) MFI ([2]; GSI 2.5 nM): 3988.3
BCMA (-PE) MFI ([2]; GSI 5 nM): 2453.6
BCMA (-PE) MFI ([2]; GSI 10 nM): 1661.5
BCMA (-PE) MFI ([2]; GSI 25 nM): 630.5
BCMA (-PE) MFI ([2]; GSI 50 nM): 279.9
BCMA (-PE) MFI ([2]; GSI 100 nM): 21.3
BCMA (-PE) MFI ([2]; GSI 500 nM): 151.8
BCMA (-PE) MFI ([2]; GSI 1000 nM): 350

PF-06863135: heterodimeric humanized full-length bispecific antibody with one BCMA binding arm and one CD3 binding arm
Raji Cell Viability (% control) ([3]; BCMAxCD3 0.00064 nM): 94 ± 3.7 % control
Raji Cell Viability (% control) ([3]; BCMAxCD3 0.0032 nM): 107 ± 4.5 % control
Raji Cell Viability (% control) ([3]; BCMAxCD3 0.016 nM): 105.8 ± 10.2 % control
Raji Cell Viability (% control) ([3]; BCMAxCD3 0.08 nM): 89.3 ± 5.7 % control
Raji Cell Viability (% control) ([3]; BCMAxCD3 0.4 nM): 88.1 ± 18.4 % control
Raji Cell Viability (% control) ([3]; BCMAxCD3 2 nM): 71 ± 9.7 % control
Raji Cell Viability (% control) ([3]; BCMAxCD3 10 nM): 82.1 ± 9.7 % control
Raji Cell Viability (% control) ([3]; BCMAxCD3 50 nM): 80 ± 13.2 % control
